Our source for the Activity and Activity_index values is ChEMBL document CHEMBL4007479, “Immunoregulatory effect assessment of a novel melanin and its carboxymethyl derivative” (2017).

Assay type in all cases: functional
Experiment [1] concerns Mus musculus. The experiment in a line: Immuno-regulatory activity in cyclophosphamide-induced immunocompromised Kunming mouse model assessed as MDA content in liver at 50 mg/kg administered once daily via gavage for 30 consecutive days measured after 12 hrs of fasting following last dose on day 30 (reference value: 3.34 +/- 0.18).
The subject of experiment [2] is Mus musculus. The experiment in a line: Immuno-regulatory activity in cyclophosphamide-induced immunocompromised Kunming mouse model assessed as GSH-PX activity in kidney at 50 mg/kg administered once daily via gavage for 30 consecutive days measured after 12 hrs of fasting following last dose on day 30 (reference value: 10.12 +/- 0.25).
For experiment [3], the system named is Mus musculus. The experiment in a line: Immuno-regulatory activity in cyclophosphamide-induced immunocompromised Kunming mouse model assessed as SOD activity in kidney at 200 mg/kg administered once daily via gavage for 30 consecutive days measured after 12 hrs of fasting following last dose on day 30 (reference value: 198.82 +/- 9.98).
The subject of experiment [4] is Mus musculus. The experiment in a line: Immuno-regulatory activity in cyclophosphamide-induced immunocompromised Kunming mouse model assessed as concanavalin A-induced lymphocyte proliferation stimulate index in spleen at 50 mg/kg administered once daily via gavage for 30 consecutive days measured after 12 hrs of fasting following last dose on day 30 by MTT assay (reference value: 0.054 +/- 0.001).

In experiment [5] the test system is Mus musculus. The experiment in a line: Immuno-regulatory activity in cyclophosphamide-induced immunocompromised Kunming mouse model assessed as peritoneal macrophage phagocytosis index at 50 mg/kg administered once daily via gavage for 30 consecutive days measured after 12 hrs of fasting following last dose by Giemsa staining based assay (reference value: 0.5 +/- 0.03).

In experiment [6] the test system is Mus musculus. The experiment in a line: Immuno-regulatory activity in cyclophosphamide-induced immunocompromised Kunming mouse model assessed as enhancement of T cell-mediated delayed-type hypersensitivity by measuring increase in paw weight at 50 mg/kg administered once daily via gavage for 30 consecutive days and SRBC immunization on day 26 measured after 12 hrs of fasting following last dose on day 30 relative to control.

For experiment [7], the system named is Mus musculus. The experiment in a line: Immuno-regulatory activity in cyclophosphamide-induced immunocompromised Kunming mouse model assessed as enhancement of B cell-mediated humoral immunity by measuring antibody producing cells in spleen against SRBC at 200 mg/kg administered once daily via gavage for 30 consecutive days measured after 12 hrs of fasting following last dose on day 30 (reference value: 0.48 +/- 0.05).

The subject of experiment [8] is Mus musculus. The experiment in a line: Immuno-regulatory activity in cyclophosphamide-induced immunocompromised Kunming mouse model assessed as peritoneal macrophage phagocytosis rate at 50 mg/kg administered once daily via gavage for 30 consecutive days measured after 12 hrs of fasting following last dose by Giemsa staining based assay (reference value: 21.33 +/- 0.98%).

The subject of experiment [9] is Mus musculus. The experiment in a line: Immuno-regulatory activity in cyclophosphamide-induced immunocompromised Kunming mouse model assessed as body weight at 50 mg/kg administered once daily via gavage for 30 consecutive days measured after 12 hrs of fasting following last dose (reference value: 30.3 +/- […]).
Experiment [10] relates to Mus musculus. The experiment in a line: Immuno-regulatory activity in cyclophosphamide-induced immunocompromised Kunming mouse model assessed as MDA content in serum at 200 mg/kg administered once daily via gavage for 30 consecutive days measured after 12 hrs of fasting following last dose on day 30 (reference value: 2.77 +/- 0.05).
Experiment [11] has as its system Mus musculus. The experiment in a line: Immuno-regulatory activity in cyclophosphamide-induced immunocompromised Kunming mouse model assessed as enhancement of B cell-mediated humoral immunity by measuring SRBC half hemolysis value at 50 mg/kg administered once daily via gavage for 30 consecutive days and SRBC immunization on day 26 measured after 12 hrs of fasting following last dose on day 30 (reference value: 173.42 +/- 7.75).

The test system of experiment [12] is Mus musculus. The experiment in a line: Immuno-regulatory activity in cyclophosphamide-induced immunocompromised Kunming mouse model assessed as MDA content in kidney at 200 mg/kg administered once daily via gavage for 30 consecutive days measured after 12 hrs of fasting following last dose on day 30 (reference value: 2.35 +/- 0.06).
Experiment [13] deals with Mus musculus. The experiment in a line: Immuno-regulatory activity in cyclophosphamide-induced immunocompromised Kunming mouse model assessed as GSH-PX activity in spleen at 50 mg/kg administered once daily via gavage for 30 consecutive days measured after 12 hrs of fasting following last dose on day 30 (reference value: 7.97 +/- 1.21).
The test system of experiment [14] is Mus musculus. The experiment in a line: Immuno-regulatory activity in cyclophosphamide-induced immunocompromised Kunming mouse model assessed as recovery from thymus damage by measuring thymus weight index at 50 mg/kg administered once daily via gavage for 30 consecutive days measured after 12 hrs of fasting following last dose (reference value: 0.98 +/- 0.14).

The test system of experiment [15] is Mus musculus. The experiment in a line: Immuno-regulatory activity in cyclophosphamide-induced immunocompromised Kunming mouse model assessed as SOD activity in liver at 50 mg/kg administered once daily via gavage for 30 consecutive days measured after 12 hrs of fasting following last dose on day 30 (reference value: 160.65 +/- 3.12).
Experiment [16] deals with Mus musculus. The experiment in a line: Immuno-regulatory activity in cyclophosphamide-induced immunocompromised Kunming mouse model assessed as MDA content in spleen at 50 mg/kg administered once daily via gavage for 30 consecutive days measured after 12 hrs of fasting following last dose on day 30 (reference value: 4.9 +/- 0.11).
The test system of experiment [17] is Mus musculus. The experiment in a line: Immuno-regulatory activity in cyclophosphamide-induced immunocompromised Kunming mouse model assessed as peritoneal macrophage phagocytosis rate at 200 mg/kg administered once daily via gavage for 30 consecutive days measured after 12 hrs of fasting following last dose by Giemsa staining based assay (reference value: 21.33 +/- 0.98%).

Experiment [18] relates to Mus musculus. The experiment in a line: Immuno-regulatory activity in cyclophosphamide-induced immunocompromised Kunming mouse model assessed as GSH-PX activity in serum at 200 mg/kg administered once daily via gavage for 30 consecutive days measured after 12 hrs of fasting following last dose on day 30 (reference value: 5.66 +/- 0.17).
The test system of experiment [19] is Mus musculus. The experiment in a line: Immuno-regulatory activity in cyclophosphamide-induced immunocompromised Kunming mouse model assessed as GSH-PX activity in kidney at 200 mg/kg administered once daily via gavage for 30 consecutive days measured after 12 hrs of fasting following last dose on day 30 (reference value: 10.12 +/- 0.25).
In experiment [20] the test system is Mus musculus. The experiment in a line: Immuno-regulatory activity in cyclophosphamide-induced immunocompromised Kunming mouse model assessed as recovery from spleen damage by measuring spleen weight index at 200 mg/kg administered once daily via gavage for 30 consecutive days measured after 12 hrs of fasting following last dose (reference value: 4.59 +/- 0.28).

The subject of experiment [21] is Mus musculus. The experiment in a line: Immuno-regulatory activity in cyclophosphamide-induced immunocompromised Kunming mouse model assessed as body weight at 200 mg/kg administered once daily via gavage for 30 consecutive days measured after 12 hrs of fasting following last dose (reference value: 30.3 +/- […]).
Experiment [22] concerns Mus musculus. The experiment in a line: Immuno-regulatory activity in cyclophosphamide-induced immunocompromised Kunming mouse model assessed as macrophage elimination ability against foreign substances by measuring carbon clearance index at 50 mg/kg administered once daily via gavage for 30 consecutive days measured after 12 hrs of fasting following last dose (reference value: 2.68 +/- 0.3).

Consider `O=C(O)C1c2cc(O)c(O)c3sc4c5c(O)[nH]c6cc(O)c(O)c(c65)c5c6ccc7ccc1c(c76)n(c23)c45` (configuration not stated), for which the Activity in experiment [1] amounted to 2.99; in experiment [2] it was 11.57; in experiment [3] it was 233.49; in experiment [6], 42.87%; in experiment [7], 0.62; in experiment [8], 22.14%. The Activity in experiment [9] amounted to 32.9 g; in experiment [10], 2; in [11] it was 175.62; in [12], 1.83; in experiment [13], 8.76; in [15], 174.51. Further, the Activity in [16] was 4.54; in [17], 26.31%; in experiment [18], 7.27; in experiment [19] it was 16.79; in [21], 35.7 g. Moreover, the Activity_index in experiment [4] was found to be 0.061; in experiment [5], 0.53; in [14], 1.01 mg/g; in [20], 5.13 mg/g; in experiment [22], 2.95.
